pEC50: −log10 of the molar value.
Key:
[1] = molecular target: T1, human GPR55 (Homo sapiens, UniProt Q9Y2T6); assay: Ca2+ mobilization assay (FLIPR, Calcium5 dye), human GPR55; format: cell-based; conditions: HEK293 cells co-expressing PK-tagged human GPR55 and EA-tagged beta-arrestin; intracellular calcium increase
T1 construct: expressed in transfected cells; host or cells: HEK293 (human embryonic kidney) cells
Description: (§1) This cell-based assay measures the ability of compounds to activate the GPR55 receptor by measuring changes in intracellular calcium levels. HEK293 (human embryonic kidney) cells co-expressing recombinant ProLink (PK) tagged human or rat GPR55 and Enzyme Acceptor (EA) tagged beta-arrestin were seeded into PDL-coated, black-walled clear-bottom 384 well plates in assay buffer (25 mM HEPES, HBSS, 1 mM Probenicid, 0.1% BSA, pH 7.4) containing Calcium5 dye (Molecular Devices). Cells were incubated in suspension with the Calcium5 dye for 1 hour at 37° C., 5% CO2. Dilution series of the compounds in assay buffer were added to the cells in duplicate wells and compound-mediated real-time increases in intracellular calcium concentration were recorded as increased fluorescence using the Molecular Devices FLIPR instrument. Kinetic traces were reduced to a numerical value by subtracting the minimum response from the maximum response.

[2] = molecular target: T2, rat GPR55 (Rattus norvegicus, UniProt F1MAK4); assay: Ca2+ mobilization assay (FLIPR, Calcium5 dye), rat GPR55; format: cell-based; conditions: HEK293 cells co-expressing PK-tagged rat GPR55 and EA-tagged beta-arrestin; intracellular calcium increase
T2 construct: expressed in transfected cells; host or cells: HEK293 (human embryonic kidney) cells
T2 sequence (F1MAK4 1-319): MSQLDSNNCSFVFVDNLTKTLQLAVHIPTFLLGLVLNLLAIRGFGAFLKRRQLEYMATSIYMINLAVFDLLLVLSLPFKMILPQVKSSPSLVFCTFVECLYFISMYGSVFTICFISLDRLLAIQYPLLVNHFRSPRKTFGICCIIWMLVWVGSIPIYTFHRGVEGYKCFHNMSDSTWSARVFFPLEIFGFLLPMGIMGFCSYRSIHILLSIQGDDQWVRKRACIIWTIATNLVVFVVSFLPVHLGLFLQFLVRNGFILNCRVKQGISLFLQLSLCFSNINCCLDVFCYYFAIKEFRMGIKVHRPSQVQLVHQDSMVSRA
Description: as §1

T1 sequence (Q9Y2T6 whole entry): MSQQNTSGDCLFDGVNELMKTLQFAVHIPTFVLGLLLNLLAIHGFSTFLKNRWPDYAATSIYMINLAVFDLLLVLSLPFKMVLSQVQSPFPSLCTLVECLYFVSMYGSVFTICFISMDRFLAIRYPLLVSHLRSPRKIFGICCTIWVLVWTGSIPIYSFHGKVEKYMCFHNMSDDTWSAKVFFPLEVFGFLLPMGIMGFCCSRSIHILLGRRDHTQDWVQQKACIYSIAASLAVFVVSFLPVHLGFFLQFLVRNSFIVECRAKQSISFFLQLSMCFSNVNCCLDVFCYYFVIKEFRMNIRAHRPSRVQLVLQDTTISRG

| SMILES | pEC50 [1] | pEC50 [2] |
| --- | --- | --- |
| C[C@@H](Nc1cnc(-c2cncc(S(C)(=O)=O)c2)cn1)c1ccc(F)cc1 [Example 18, (R)-N-(1-(4-fluorophenyl)ethyl)-5-(5-(methylsulfonyl)pyridin-3-yl)pyrazin-2-amine] | ≥ 7.30 | ≥ 7.30 |
| Cc1nc(N[C@H](C)c2ccc(F)cc2)ccc1-c1cncc(S(C)(=O)=O)c1 [Example 22, (R)-N-(1-(4-fluorophenyl)ethyl)-2-methyl-5′-(methylsulfonyl)-[3,3′-bipyridin]-6-amine] | ≥ 6.70 | ≥ 5.30 |
| C[C@@H](Nc1cnc(-c2cncc([S+](C)[O-])c2)cn1)c1ccc(F)cc1 (stereo partly drawn) [Example 23, N-((R)-1-(4-fluorophenyl)ethyl)-5-(5-(methylsulfinyl)pyridin-3-yl)pyrazin-2-amine] | ≥ 6.00 | ≥ 5.30 |
| C[C@@H](Nc1cnc(-c2cnc3oc(=O)n(C)c3c2)cn1)c1ccc(F)cc1 [Example 26, (R)-6-(5-((1-(4-fluorophenyl)ethyl)amino)pyrazin-2-yl)-1-methyloxazolo[5,4-b]pyridin-2(1H)-one] | ≥ 6.00 | ≥ 5.30 |
| C[C@@H](Nc1ncc(-c2cncc(S(C)(=O)=O)c2)nn1)c1ccc(F)cc1 [Example 28, (R)-N-(1-(4-fluorophenyl)ethyl)-6-(5-(methylsulfonyl)pyridin-3-yl)-1,2,4-triazin-3-amine] | ≥ 7.30 | ≥ 6.00 |
| C=Cc1cncc(-c2cnc(N[C@H](C)c3ccc(F)cc3)cn2)c1 [Example 33, (R)-N-(1-(4-fluorophenyl)ethyl)-5-(5-vinylpyridin-3-yl)pyrazin-2-amine] | ≥ 7.30 | ≥ 6.00 |
| C[C@@H](Nc1cnc(-c2cncc(C=C(F)F)c2)cn1)c1ccc(F)cc1 [Example 34, (R)-5-(5-(2,2-difluorovinyl)pyridin-3-yl)-N-(1-(4-fluorophenyl)ethyl)pyrazin-2-amine] | ≥ 7.30 | ≥ 6.00 |
| CS(=O)(=O)c1cncc(-c2cnc(N[C@@H]3CCc4ccccc43)cn2)c1 [Example 36, (R)-N-(2,3-dihydro-1H-inden-1-yl)-5-(5-(methylsulfonyl)pyridin-3-yl)pyrazin-2-amine] | ≥ 6.70 | ≥ 5.30 |
| CS(=O)(=O)c1cncc(-c2ccc(NC3CCc4cc(F)ccc43)nc2)c1 (centres unmarked) [Example 38, N-(5-fluoro-2,3-dihydro-1H-inden-1-yl)-5′-(methylsulfonyl)-[3,3′-bipyridin]-6-amine] | ≥ 6.00 | ≥ 7.30 |
| C[C@@H](Nc1cnc(-c2cncc(OC(F)F)c2)cn1)c1ccc(F)cc1 [Example 39, (R)-5-(5-(difluoromethoxy)pyridin-3-yl)-N-(1-(4-fluorophenyl)ethyl)pyrazin-2-amine] | ≥ 6.00 | ≥ 6.00 |
| C[C@@H](Nc1ncc(-c2cncc(C=C(F)F)c2)nn1)c1ccc(F)cc1 [Example 40, (R)-6-(5-(2,2-difluorovinyl)pyridin-3-yl)-N-(1-(4-fluorophenyl)ethyl)-1,2,4-triazin-3-amine] | ≥ 6.70 | ≥ 5.30 |
| C[C@@H](Nc1ncc(-c2cncc(CO)c2)nn1)c1ccc(F)cc1 [Example 41, (R)-(5-(3-((1-(4-fluorophenyl)ethyl)amino)-1,2,4-triazin-6-yl)pyridin-3-yl)methanol] | ≥ 6.70 | ≥ 6.00 |
| C[C@@H](Nc1cnc(-c2cncc(OCC(F)(F)F)c2)cn1)c1ccc(F)cc1 [Example 42, (R)-N-(1-(4-fluorophenyl)ethyl)-5-(5-(2,2,2-trifluoroethoxy)pyridin-3-yl)pyrazin-2-amine] | ≥ 6.70 | ≥ 6.00 |
| C[C@@H](Nc1cnc(-c2cncc(OC(F)(F)F)c2)cn1)c1ccc(F)cc1 [Example 43, (R)-N-(1-(4-fluorophenyl)ethyl)-5-(5-(trifluoromethoxy)pyridin-3-yl)pyrazin-2-amine] | ≥ 7.30 | ≥ 5.30 |
| C=Cc1cc(-c2cnc(N[C@H](C)c3ccc(F)cc3)cn2)cnn1 [Example 44, (R)-N-(1-(4-fluorophenyl)ethyl)-5-(6-vinylpyridazin-4-yl)pyrazin-2-amine] | ≥ 6.00 | ≥ 5.30 |
| OC(c1cncc(-c2cnc(N[C@@H]3CCc4ccccc43)cn2)c1)C(F)F (stereo partly drawn) [Example 45, 1-(5-(5-(((R)-2,3-dihydro-1H-inden-1-yl)amino)pyrazin-2-yl)pyridin-3-yl)-2,2-difluoroethan-1-ol] | ≥ 6.70 | ≥ 6.00 |
| C[C@@H](Nc1cnc(-c2cncc(CC(F)(F)F)c2)nn1)c1ccc(F)cc1 [Example 56, (R)-N-(1-(4-fluorophenyl)ethyl)-3-(5-(2,2,2-trifluoroethyl)pyridin-3-yl)-1,2,4-triazin-6-amine] | ≥ 6.00 | ≥ 5.30 |
| C[C@@H](Nc1cnc(-c2cnnc(CC(F)(F)F)c2)cn1)c1ccc(F)cc1 [Example 57, (R)-N-(1-(4-fluorophenyl)ethyl)-5-(6-(2,2,2-trifluoroethyl)pyridazin-4-yl)pyrazin-2-amine] | ≥ 7.30 | ≥ 5.30 |
| C[C@@H](Nc1cnc(-c2cnnc(C(O)C(F)(F)F)c2)cn1)c1ccc(F)cc1 (stereo partly drawn) [Example 58, 2,2,2-trifluoro-1-(5-(5-(((R)-1-(4-fluorophenyl)ethyl)amino)pyrazin-2-yl)pyridazin-3-yl)ethan-1-ol] | ≥ 7.30 | ≥ 5.30 |

Results, then the molecule that gave them:

| pEC50 [1] | pEC50 [2] | SMILES |
| --- | --- | --- |
| ≥ 7.30 | ≥ 6.00 | CCc1cncc(-c2cnc(N[C@H](C)c3ccc(F)cc3)cn2)c1 [Example 17, (R)-5-(5-ethylpyridin-3-yl)-N-(1-(4-fluorophenyl)ethyl)pyrazin-2-amine] |
| ≥ 6.00 | ≥ 6.00 | CCc1cncc(-c2ccc(N[C@H](C)c3ccccc3F)nc2)c1 [Example 19, (R)-5′-ethyl-N-(1-(2-fluorophenyl)ethyl)-[3,3′-bipyridin]-6-amine] |
| ≥ 7.30 | ≥ 7.30 | C=Cc1cncc(-c2ccc(N[C@H](C)c3ccc(F)cc3)nc2)c1 [Example 20, (R)-N-(1-(4-fluorophenyl)ethyl)-5′-vinyl-[3,3′-bipyridin]-6-amine] |
| ≥ 6.70 | ≥ 5.30 | CCc1cncc(-c2ccc(N[C@@H]3CCc4ccccc43)nc2)c1 [Example 21, (R)-N-(2,3-dihydro-1H-inden-1-yl)-5′-ethyl-[3,3′-bipyridin]-6-amine] |
| ≥ 6.70 | ≥ 5.30 | CC[S+]([O-])c1cncc(-c2cnc(N[C@H](C)c3ccc(F)cc3)cn2)c1 (stereo partly drawn) [Example 24, 5-(5-(ethylsulfinyl)pyridin-3-yl)-N-((R)-1-(4-fluorophenyl)ethyl)pyrazin-2-amine] |
| ≥ 7.30 | ≥ 5.30 | C[C@@H](Nc1cnc(-c2cncc(CCO)c2)cn1)c1ccc(F)cc1 [Example 35, (R)-2-(5-(5-((1-(4-fluorophenyl)ethyl)amino)pyrazin-2-yl)pyridin-3-yl)ethan-1-ol] |
| ≥ 6.70 | ≥ 7.30 | CNCc1cncc(-c2cnc(N[C@H](C)c3ccc(F)cc3)cn2)c1 [Example 37, (R)-N-(1-(4-fluorophenyl)ethyl)-5-(5-(methylamino)methylpyridin-3-yl)pyrazin-2-amine] |
| ≥ 6.00 | ≥ 5.30 | CCc1cncc(-c2ccc(N[C@H](C)c3ccc(OC)cc3)nc2)c1 [Example 47, (R)-5′-ethyl-N-(1-(4-methoxyphenyl)ethyl)-[3,3′-bipyridin]-6-amine] |
| ≥ 7.30 | ≥ 6.00 | CCc1cncc(-c2ccc(N[C@H](C)c3cccc(F)c3)nc2)c1 [Example 48, (R)-5′-ethyl-N-(1-(3-fluorophenyl)ethyl)-[3,3′-bipyridin]-6-amine] |
| ≥ 7.30 | ≥ 6.00 | CCc1cncc(-c2ccc(N[C@H](C)c3ccccc3)nc2)c1 [Example 49, (R)-5′-ethyl-N-(1-phenylethyl)-[3,3′-bipyridin]-6-amine] |
| ≥ 6.00 | ≥ 5.30 | CCc1cncc(-c2ccc(N[C@H](C)c3ccc(C)cc3)nc2)c1 [Example 50, (R)-5′-ethyl-N-(1-(p-tolyl)ethyl)-[3,3′-bipyridin]-6-amine] |
| ≥ 7.30 | ≥ 6.00 | C#Cc1cncc(-c2ccc(N[C@H](C)c3ccc(F)cc3)nc2)c1 [Example 51, (R)-5′-ethynyl-N-(1-(4-fluorophenyl)ethyl)-[3,3′-bipyridin]-6-amine] |
| ≥ 7.30 | ≥ 6.70 | C[C@@H](Nc1cnc(-c2cncc(CCF)c2)cn1)c1ccc(F)cc1 [Example 52, (R)-5-(5-(2-fluoroethyl)pyridin-3-yl)-N-(1-(4-fluorophenyl)ethyl)pyrazin-2-amine] |
| ≥ 6.00 | ≥ 5.30 | C[C@@H](Nc1ccc(-c2ccc3oc(=O)[nH]c3c2)cn1)c1ccc(F)cc1 [Example 59, (R)-5-(6-((1-(4-fluorophenyl)ethyl)amino)pyridin-3-yl)benzo[d]oxazol-2(3H)-one] |
| ≥ 6.00 | ≥ 5.30 | C[C@@H](Nc1ccc(-c2ccc3[nH]c(=O)oc3c2)cn1)c1ccc(F)cc1 [Example 61, (R)-6-(6-((1-(4-fluorophenyl)ethyl)amino)pyridin-3-yl)benzo[d]oxazol-2(3H)-one] |

— patent publication US20250282728A1, “NITROGEN COMPRISING HETEROCYCLIC DERIVATIVES FOR THE TREATMENT OF DISORDERS ASSOCIATED WITH GPR55 RECEPTOR” (Cerevance, Inc., priority 2022, published 2025)
